{"source": "patent US20100204149A1", "about": "“USE OF OCTREOTIDE AS A THERAPEUTIC AGENT” (priority 2007, published 2010)", "system": "drug-resistant Mycobacterium tuberculosis", "details": "5 micrograms per ml"}
{"smiles": "C[C@@H](O)[C@@H]1NC(=O)[C@H](CCCCN)NC(=O)[C@@H](Cc2c[nH]c3ccccc23)NC(=O)[C@H](Cc2ccccc2)NC(=O)[C@@H](NC(=O)[C@H](N)Cc2ccccc2)CSSC[C@@H](C(=O)N[C@H](CO)[C@@H](C)O)NC1=O", "note": "[Octreotide, H-D-Phe-Cys-Phe-D-Trp-Lys-Thr-Cys-L-threoninol]", "values": [{"measurement": "% inhibition", "result": 100.0, "unit": "%"}]}
